Results on 36 compounds are retold here after patent publication US20090325964A1, “Piperazine Metabotropic Glutamate Receptor 5 (MGLUR5) Negative Allosteric Modulators For Anxiety/Depression” (Wyeth, priority 2008, published 2009).

Broadly, the IC50 is the concentration at which inhibition is half-maximal. Broadly, the Ki is a dissociation constant, usually derived from enzyme kinetics or from competition with a known ligand.

The experiment addresses T1, rat mGluR5 receptor (Rattus norvegicus, UniProt P31424).
T1 construct: expressed in transfected cells; host or cells: HEK-293
The experiment in a line: [3H]-MPEP displacement binding assay, HEK-293 cell membranes expressing rat mGluR5. To be noted: for IC50: no Ki given, read-out: IC50 (printed in the Median Ki column instead of a Ki); for Ki: read-out: Median Ki. In outline: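 Membranes from HEK-293 cells expressing rat mGluR5 (12-25 μg protein), incubated 60 min at room temperature with 4 nM [3H]-MPEP in 50 mM Tris pH 7.5, then filtered. Nonspecific binding defined with 10 μM MPEP.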

Setting [1] is: @ 10 μM compound, Biological Activity, Table 2A, read-out: PCT INHIB (%) @ 10 μM.
The mark [2] stands for this setting: [3H]-MPEP displacement, rat mGluR5.
[3] abbreviates: 1 h, single point, @ 10 μm compound, Table 1A, read-out: PCT INHIB (%) @ 10 μm.
Where [4] appears, read: @ 10 μM compound, Biological Activity, Table 2A.
The mark [5] stands for this setting: single point, @ 10 μM compound, Table 6, read-out: PCT INHIB (%) @ 10 μM.

Where two headings read alike, the source gives them in different places.

T1 sequence (P31424 21-1203): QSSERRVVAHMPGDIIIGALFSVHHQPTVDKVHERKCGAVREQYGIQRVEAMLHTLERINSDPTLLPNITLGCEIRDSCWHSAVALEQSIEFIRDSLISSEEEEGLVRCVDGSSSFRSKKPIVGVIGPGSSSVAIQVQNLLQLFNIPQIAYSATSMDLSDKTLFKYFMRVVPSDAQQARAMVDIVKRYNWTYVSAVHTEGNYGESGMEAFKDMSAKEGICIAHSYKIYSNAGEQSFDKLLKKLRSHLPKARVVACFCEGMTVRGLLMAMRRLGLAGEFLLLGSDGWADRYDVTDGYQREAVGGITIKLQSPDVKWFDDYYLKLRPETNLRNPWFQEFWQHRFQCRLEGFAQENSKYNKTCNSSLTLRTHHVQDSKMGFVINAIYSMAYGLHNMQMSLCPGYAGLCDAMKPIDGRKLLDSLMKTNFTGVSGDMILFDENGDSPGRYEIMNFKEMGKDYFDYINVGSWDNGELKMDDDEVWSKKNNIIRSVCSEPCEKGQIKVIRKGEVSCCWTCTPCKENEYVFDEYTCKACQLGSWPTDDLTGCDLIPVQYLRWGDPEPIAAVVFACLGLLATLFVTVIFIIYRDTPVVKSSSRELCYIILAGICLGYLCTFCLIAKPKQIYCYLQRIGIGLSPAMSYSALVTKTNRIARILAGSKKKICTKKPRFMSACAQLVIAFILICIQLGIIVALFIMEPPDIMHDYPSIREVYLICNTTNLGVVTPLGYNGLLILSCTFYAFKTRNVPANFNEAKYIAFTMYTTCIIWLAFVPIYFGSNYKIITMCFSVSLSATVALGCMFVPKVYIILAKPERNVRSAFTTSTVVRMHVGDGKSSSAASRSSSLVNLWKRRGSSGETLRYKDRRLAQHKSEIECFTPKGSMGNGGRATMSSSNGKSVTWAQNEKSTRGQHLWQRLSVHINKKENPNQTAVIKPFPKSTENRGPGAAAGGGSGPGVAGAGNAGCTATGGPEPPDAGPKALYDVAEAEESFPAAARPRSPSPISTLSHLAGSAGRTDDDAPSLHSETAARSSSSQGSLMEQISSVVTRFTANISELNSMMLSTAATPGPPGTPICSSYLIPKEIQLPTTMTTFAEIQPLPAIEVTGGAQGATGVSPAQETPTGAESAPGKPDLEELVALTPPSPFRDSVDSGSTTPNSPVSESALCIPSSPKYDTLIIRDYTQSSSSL

As to `O=C(c1cccc(OCc2ccccc2)c1)N1CCN(c2ccccn2)CC1` [Compound 152, 1-[3-(benzyloxy)benzoyl]-4-pyridin-2-ylpiperazine], for the setting “single point, @ 10 μM compound, Table 3A, read-out: PCT INHIB (%) @ 10 μM”, the inhibition at 10 µM worked out at 0%.

As for `O=C(c1cccc(C#Cc2ccccc2)c1)N1CCN(c2ncccc2C(F)(F)F)CC1` [Compound 129, 1-[3-(phenylethynyl)benzoyl]-4-[3-(trifluoromethyl)pyridin-2-yl]piperazine], under setting [1], the inhibition at 10 µM was 45%.

For `COc1ccc(C(=O)N2CCN(c3ncccc3Cl)CC2)cc1C#Cc1cccc(OCc2ccccc2)c1` [Compound 343, 1-(3-{[3-(benzyloxy)phenyl]ethynyl}-4-methoxybenzoyl)-4-(3-chloropyridin-2-yl)piperazine], the IC50 under setting [2] is over 10 µM.

As to `O=C(c1ccnc(C#Cc2ccccc2)c1)N1CCN(c2cccc(C(F)(F)F)n2)CC1` [Compound 126, 1-[2-(phenylethynyl)isonicotinoyl]-4-[6-(trifluoromethyl)pyridin-2-yl]piperazine], the inhibition at 10 µM under setting [1] was found to be 54%.

As for `COc1ccc(C(=O)N2CCN(c3ncccn3)CC2)cc1C#Cc1cccc(OC(F)F)c1` [Compound 364, 2-[4-(3-{[3-(difluoromethoxy)phenyl]ethynyl}-4-methoxybenzoyl)piperazin-1-yl] pyrimidine], under setting [2], the Ki is 230 nM.

For the compound `COc1ccc(C(=O)N2CCN(c3ccccn3)CC2)cc1C#Cc1cc(C)ccc1C` [Compound 22, 1-{3-[(2,5-dimethylphenyl)ethynyl]-4-methoxybenzoyl}-4-pyridin-2-ylpiperazine], under setting [3], the inhibition at 10 µM came to 43%.

Regarding `O=C(c1cccc(C#CC2(O)CCCC2)c1)N1CCN(c2ccccn2)CC1` [Compound 9, 1-({3-[(4-pyridin-2-ylpiperazin-1-yl)carbonyl]phenyl}ethynyl)cyclopentanol], under setting [3], the inhibition at 10 µM worked out at 0%.

Take `COc1ccc(C(=O)N2CCN(c3nnc(-c4ncc([N+](=O)[O-])n4C)s3)CC2)cc1C#Cc1ccccn1` [Compound 283, 1-[4-methoxy-3-(pyridin-2-ylethynyl)benzoyl]-4-[5-(1-methyl-5-nitro-1H-imidazol-2-yl)-1,3,4-thiadiazol-2-yl]piperazine]: under setting [2], the Ki was 2310 nM.

Consider `COc1ccc(C(=O)N2CCN(C(=O)C3CCCO3)CC2)cc1C#Cc1ccccn1` (centres unmarked) [Compound 249, 1-[4-methoxy-3-(pyridin-2-ylethynyl)benzoyl]-4-(tetrahydrofuran-2-ylcarbonyl)piperazine], for which the Ki under setting [2] was determined as 181 nM.

As for `COc1ccc(C(=O)N2CCN(c3ncccc3Cl)CC2)cc1C#Cc1ccc([N+](=O)[O-])cc1` [Compound 350, 1-(3-chloropyridin-2-yl)-4-{4-methoxy-3-[(4-nitrophenyl)ethynyl]benzoyl}piperazine], under setting [2], the IC50 is over 10 µM.

On to `O=C(c1ccnc(C#Cc2ccccc2)c1)N1CCN(c2ccncc2)CC1` [Compound 144, 1-[2-(phenylethynyl)isonicotinoyl]-4-pyridin-4-ylpiperazine], for which, under setting [1], the inhibition at 10 µM came to 10%.

On to `O=C(c1cccc(C#Cc2ccccc2)c1)N1CCN(c2ccccc2)CC1` [Compound 76, 1-phenyl-4-[3-(phenylethynyl)benzoyl]piperazine], for which the inhibition at 10 µM under setting [1] was found to be 86%. In addition, where the note is “Biological Activity, Table 2A”, the Ki came out at 1290 nM.

Regarding `Cc1cccc(OCc2cccc(C(=O)N3CCN(c4ccccn4)CC3)c2)c1` [Compound 164, 1-{3-[(3-methylphenoxy)methyl]benzoyl}-4-pyridin-2-ylpiperazine], the Ki ([3H]-MPEP 4 nM, Table 4A) was 1750 nM.

In the case of `Cc1cccc(N2CCN(C(=O)c3cncc(C#Cc4ccccc4)c3)CC2)n1` [Compound 143, 1-(6-methylpyridin-2-yl)-4-{(5-(phenylethynyl)pyridin-3-yl]carbonyl}piperazine], the inhibition at 10 µM under setting [1] came out at 49%.

In the case of `O=C(c1cccc(C#Cc2ccccc2)c1)N1CCN(c2cccc(Cl)c2)CC1` [Compound 82, 1-(3-chlorophenyl)-4-[3-(phenylethynyl)benzoyl]piperazine], under setting [1], the inhibition at 10 µM came out at 58%. Besides, under “Biological Activity, Table 2A”, the Ki stood at 2770 nM.

`O=C(c1cccc(C#Cc2ccccn2)c1)N1CCN(c2ncccc2C(F)(F)F)CC1` [Compound 146, 1-[3-(pyridin-2-ylethynyl)benzoyl]-4-[3-(trifluoromethyl)pyridin-2-yl]piperzine]: the “PCT INHIB (%) @ 10 μM” value under setting [4] stood at 48%.

As to `N#Cc1ccc(N2CCN(C(=O)c3cccc(C#Cc4ccccc4)c3)CC2)nc1` [Compound 128, 6-{4-[3-(phenylethynyl)benzoyl]piperazin-1-yl}nicotinonitrile], the inhibition at 10 µM under setting [1] was determined as 48%.

For the compound `COc1ccc(C(=O)N2CCN(c3ncccn3)CC2)cc1C#Cc1ccc(Cl)cc1` [Compound 363, 2-(4-{3-[(4-chlorophenyl)ethynyl]-4-methoxybenzoyl}piperazin-1-yl)pyrimidine], the Ki under setting [2] came out at 891 nM.

Consider `COc1ccc(C(=O)N2CCN(S(=O)(=O)c3cccc(Cl)c3)CC2)cc1C#Cc1ccccn1` [Compound 279, 1-[(3-chlorophenyl)sulfonyl]-4-[4-methoxy-3-(pyridin-2-ylethynyl)benzoyl]piperazine], for which the Ki under setting [2] was 832 nM.

Take `CC(=O)c1ccc(N2CCN(C(=O)c3cccc(C#Cc4ccccc4)c3)CC2)cc1` [Compound 74, 1-(4-{-[3-(phenylethynyl)benzoyl]piperazine-1-yl}phenyl)ethanone]: the “PCT INHIB (%) @ 10 μM” value under setting [4] is reported as 20%.

For the compound `Cc1ccc(C(=O)N2CCN(c3ccccn3)CC2)cc1C#Cc1cccnc1` [Compound 32, 1-[4-methyl-3-(pyridin-3-ylethynyl)benzoyl]-4-pyridin-2-ylpiperazine], the Ki was 3110 nM. Also, the inhibition at 10 µM under setting [3] amounted to 68%.

Turning to `O=C(c1cccc(C#Cc2ccccc2)c1)N1CCN(c2ccc(F)cc2)CC1` [Compound 79, 1-(4-fluorophenyl)-4-[3-(phenylethynyl)benzoyl]piperazine], under setting [1], the inhibition at 10 µM was 28%.

As to `O=C(c1cccc(C#Cc2ccccc2)c1)N1CCN(c2cccc(C(F)(F)F)c2)CC1` [Compound 85, 1-[3-(phenylethynyl)benzoyl]-4-[3-(trifluoromethyl)phenyl]piperazine], under setting [1], the inhibition at 10 µM amounted to 32%.

Turning to `Nc1cccc(C#Cc2cccc(CN3CCN(c4ccccn4)CC3)c2)c1` [Compound 180, 3-({3-[(4-pyridin-2-ylpiperazin-1-yl)methyl]phenyl}ethynyl)aniline], under setting [5], the inhibition at 10 µM stood at 0%.

With `Oc1cccc(C#Cc2cccc(CN3CCN(c4ccccn4)CC3)c2)c1` [Compound 177, 3-({3-[(4-pyridin-2-ylpiperazin-1-yl)methyl]phenyl}ethynyl)phenol], under setting [5], the inhibition at 10 µM turned out to be 13%.

`COc1ccc(C(=O)N2CCN(c3cc(Cl)nc(C)n3)CC2)cc1C#Cc1ccccn1` [Compound 297, 4-chloro-6-{4-[4-methoxy-3-(pyridin-2-ylethynyl)benzoyl]piperazin-1-yl}-2-methylpyrimidine]: the Ki under setting [2] is 159 nM.

As to `N#Cc1ccc(N2CCN(C(=O)c3cccc(C#Cc4ccccn4)c3)CC2)nc1` [Compound 96, 6-{4-[3-(pyridin-2-ylethynyl)benzoyl]piperazin-1-yl}nicotinonitrile], under setting [1], the inhibition at 10 µM was found to be 50%. The Ki (Biological Activity, Table 2A) was found to be 3240 nM.

Regarding `COc1ccc(C(=O)N2CCN(c3nnc(-c4ccccc4)[nH]3)CC2)cc1C#Cc1ccccn1` [Compound 291, 1-[4-methoxy-3-(pyridin-2-ylethynyl)benzoyl]-4-(5-phenyl-4H-1,2,4-triazol-3-yl)piperazine], the Ki under setting [2] amounted to 199 nM.

`COc1ccc(C(=O)N2CCN(c3cc4ccc(Cl)cc4cn3)CC2)cc1C#Cc1ccccn1` [Compound 260, 7-chloro-3-{4-[4-methoxy-3-(pyridin-2-ylethynyl)benzoyl]piperazin-1-yl}isoquinoline]: under setting [2], the Ki is 951 nM.

As to `Cc1ccc(C(=O)N2CCN(c3cnccn3)CC2)cc1C#Cc1cccc(C(F)(F)F)c1` [Compound 60, 2-[4-(4-methyl-3-{[3-(trifluoromethyl)phenyl]ethynyl}benzoyl)piperazin-1-yl]pyrazine], the inhibition constant Ki came to 749 nM. In addition, the inhibition at 10 µM under setting [3] is 85%.

As to `COc1ccc(C(=O)N2CCN(c3ncccn3)CC2)cc1C#Cc1ccccc1F` [Compound 359, 2-(4-{3-[(2-fluorophenyl)ethynyl]-4-methoxybenzoyl}piperazin-1-yl)pyrimidine], under setting [2], the Ki was 287 nM.

On to `COc1ccc(C(=O)N2CCN(S(=O)(=O)c3ccc(-n4cnnn4)c(OC)c3)CC2)cc1C#Cc1ccccn1` [Compound 272, 1-[4-methoxy-3-(pyridin-2-ylethynyl)benzoyl]-4-{[3-methoxy-4-(1H-tetrazol-1-yl)phenyl]sulfonyl}piperazine], for which, under setting [2], the IC50 is over 10 µM.

With `Cc1ccc(C(=O)N2CCN(c3cnccn3)CC2)cc1C#Cc1cccc(Cl)c1` [Compound 67, 2-(4-{3-[(3-chlorophenyl)ethynyl]-4-methylbenzoyl}piperazin-1-yl)pyrazine], the inhibition constant (Ki) was determined as 49.1 nM.

Regarding `COc1ccc(C(=O)N2CCN(c3ccccn3)CC2)cc1C#Cc1cc(C(F)(F)F)cc(C(F)(F)F)c1` [Compound 44, 1-(3-{[3,5-bis(trifluoromethyl)phenyl]ethynyl}-4-methoxybenzoyl)-4-pyridin-2-ylpiperazine], under setting [3], the inhibition at 10 µM came out at 0%.

Turning to `Cc1cc(C)c(C#Cc2cc(C(=O)N3CCN(c4ccccn4)CC3)ccc2C)cc1C` [Compound 41, 1-{4-methyl-3-[(2,4,5-trimethylphenyl)ethynyl]benzoyl}-4-pyridin-2-ylpiperazine], the inhibition at 10 µM under setting [3] amounted to 0%.

Consider `O=C(c1cccc(C#Cc2cccnc2)c1)N1CCN(c2ccccn2)CC1` [Compound 93, 1-pyridin-2-yl-4-[3-(pyridin-3-ylethynyl)benzoyl]piperazine], for which the inhibition at 10 µM under setting [1] turned out to be 26%.
